Test results reported in PubChem BioAssay AID1963970 (Molecular Pharmacology Branch, DTP, NCI, 2024).

System: 931267-113-T-J1-PDC multicell spheroid viability
Test: Anticancer human tumor 931267-113-T-J1-PDC patient-derived colon adenocarcinoma cell line growth inhibition [PI3K]
Conditions: for IC50: curve of first compound; for viability, T/C: stronger effect = lower value
Excerpt: Combinatorial screen of targeted agents with the PI3K inhibitors inavolisib, alpelisib, duvelisib, and copanlisib in multi-cell type tumor spheroids
A high-throughput screen of multi-cell type tumor spheroids was designed to identify active combinations of targeted small molecules and PI3K pathway inhibitors. Complex spheroids include a stromal component modeled by human endothelial cells (HUVEC) and fibroblasts modeled by human mesenchymal stem cells (MSCs). The concentration ranges selected for each drug and investigational agent were based upon clinically achievable concentrations if the clinical Cmax of the agent was known.
Compounds. The drugs and investigational agents: inavolisib (NSC800729), alpelisib (NSC765974), duvelisib (NSC772469), copanlisib (NSC816437), ipatasertib (NSC767898), afuresertib (NSC778305), talazoparib (NSC767125), sapanisertib (NSC764658), selumetinib (NSC741078), tovorafenib (DAY101, NSC766906), vemurafenib (NSC761431), ravoxertinib (NSC781343), sotorasib (NSC818433), MRTX1133 (NSC 836407), abemaciclib (NSC 768073), palbociclib (NSC758247), venetoclax (NSC 766270), SY5609 (NSC837396), enzalutamide (NSC755605), and darolutamide (NSC825331), were obtained from the National Cancer Institute (NCI) Developmental Therapeutics Program Chemical Repository. The FDA-approved anticancer drug set is available from the NCI Developmental Therapeutics Program. […] The stock solutions were prepared in dimethyl sulfoxide (DMSO, Sigma-Aldrich, St. Louis, MO, cat. D2650) at 800-fold the tested concentration and stored at -70 degrees C prior to their use. All drugs and investigational agents were tested over a range starting from a high concentration at or near the clinical Cmax and decreasing in half-log increments. If the clinical Cmax for an agent had not been determined, the highest concentration tested was 10 microM.
Cell Culture. All cells were maintained in an incubator at 37 degrees C and 5% CO2 with 95% humidity. The PDC lines were cultured according to standard operating procedures established by the NCI PDMR (https://pdmr.cancer.gov/sops/default.htm). All PDCs were thawed and cultured in Matrigel-coated flasks prepared with a working solution of 1X Ham's F-12 nutrient mix, without supplementation (Invitrogen, Waltham, MA, cat. 11765054), 100 U/mL penicillin-streptomycin (Invitrogen, cat. 15140122), and 2.5% Matrigel (Corning Inc., Corning, NY, cat. 354248) for the first three passages. The 354836-022-R-J1-PDC, 475296-252-R-J1-PDC, and 997726-040-R-J2-PDC lines were cultured in 6A media, which includes advanced DMEM/F-12 (Thermo Fisher Scientific, cat. 12634028), 10 mM HEPES (Thermo Fisher Scientific, cat. 15630080), 1X GlutaMAX supplement (Thermo Fisher Scientific, cat. 35050061), 0.1 mg/mL primocin (InvivoGen, San Diego, CA, cat. ant-pm-2), 10% defined fetal bovine serum, heat inactivated (HyClone Laboratories Inc., Logan, UT, cat. SH30070.03HI), 50% L-WRN conditioned media (ATCC, cat. CRL-3276), 1.25 mM N-Acetyl-L-cysteine (Sigma-Aldrich, cat. A9165), 10 mM nicotinamide (Sigma-Aldrich, cat. N0636), 1X B-27 supplement (Thermo Fisher Scientific, cat. 17504044), 1X N-2 supplement (Thermo Fisher Scientific, cat. 17502048), and 10 microM Y-27632 dihydrochloride (Tocris Bioscience, Bristol, United Kingdom, cat. 1254). The 624824-186-R-J2-PDC line was cultured in 6C/Colon 1B media, which includes all 6A media components plus 50 ng/mL human EGF recombinant protein (Thermo Fisher Scientific, cat. PHG0311). […]

[1] = second compound 0.00316 µM, first compound 0.0316 µM
[2] = second compound 0.00316 µM, first compound 0.1 µM
[3] = second compound 0.01 µM, first compound 0.0316 µM
[4] = second compound 0.01 µM, first compound 0.1 µM
[5] = second compound 0.0316 µM, first compound 0.0316 µM
[6] = second compound 0.0316 µM, first compound 0.1 µM
[7] = second compound 0.1 µM, first compound 0.0316 µM
[8] = second compound 0.1 µM, first compound 0.1 µM
[9] = second compound 0.316 µM, first compound 0.0316 µM
[10] = second compound 0.316 µM, first compound 0.1 µM
[11] = second compound 1 µM, first compound 0.0316 µM
[12] = second compound 1 µM, first compound 0.1 µM
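Further: viability read 7 days after compound addition.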

## CC(C)n1nc(-c2ccc3oc(N)nc3c2)c2c(N)ncnc21 + CC(Nc1ccc2c(c1)OCCn1cc(N3C(=O)OCC3C(F)F)nc1-2)C(N)=O
Second compound 0.00316 µM
  IC50: 0.0801 µM
Second compound 0.01 µM
  IC50: > 0.1 µM
Second compound 0.0316 µM
  IC50: 0.0666 µM
Second compound 0.1 µM
  IC50: 0.0607 µM
Second compound 0.316 µM
  IC50: 0.0487 µM
Second compound 1 µM
  IC50: 0.0377 µM
Second compound 0.00316 µM, first compound 0.000316 µM
  viability, T/C: 94.6%
Second compound 0.00316 µM, first compound 0.001 µM
  viability, T/C: 98%
Second compound 0.00316 µM, first compound 0.00316 µM
  viability, T/C: 83%
Second compound 0.00316 µM, first compound 0.01 µM
  viability, T/C: 91.5%
[1]
  viability, T/C: 80.2%
[2]
  viability, T/C: 42.5%
Second compound 0.01 µM, first compound 0.000316 µM
  viability, T/C: 104%
Second compound 0.01 µM, first compound 0.001 µM
  viability, T/C: 101%
Second compound 0.01 µM, first compound 0.00316 µM
  viability, T/C: 86%
Second compound 0.01 µM, first compound 0.01 µM
  viability, T/C: 81.1%
[3]
  viability, T/C: 68%
[4]
  viability, T/C: 52.2%
Second compound 0.0316 µM, first compound 0.000316 µM
  viability, T/C: 97.7%
Second compound 0.0316 µM, first compound 0.001 µM
  viability, T/C: 104%
Second compound 0.0316 µM, first compound 0.00316 µM
  viability, T/C: 101%
Second compound 0.0316 µM, first compound 0.01 µM
  viability, T/C: 90%
[5]
  viability, T/C: 71%
[6]
  viability, T/C: 38.8%
Second compound 0.1 µM, first compound 0.000316 µM
  viability, T/C: 89.4%
Second compound 0.1 µM, first compound 0.001 µM
  viability, T/C: 83.8%
Second compound 0.1 µM, first compound 0.00316 µM
  viability, T/C: 93%
Second compound 0.1 µM, first compound 0.01 µM
  viability, T/C: 77.7%
[7]
  viability, T/C: 64.1%
[8]
  viability, T/C: 39.6%
Second compound 0.316 µM, first compound 0.000316 µM
  viability, T/C: 82.7%
Second compound 0.316 µM, first compound 0.001 µM
  viability, T/C: 82.7%
Second compound 0.316 µM, first compound 0.00316 µM
  viability, T/C: 69%
Second compound 0.316 µM, first compound 0.01 µM
  viability, T/C: 70.8%
[9]
  viability, T/C: 59.2%
[10]
  viability, T/C: 36.7%
Second compound 1 µM, first compound 0.000316 µM
  viability, T/C: 72.5%
Second compound 1 µM, first compound 0.001 µM
  viability, T/C: 69.3%
Second compound 1 µM, first compound 0.00316 µM
  viability, T/C: 70.6%
Second compound 1 µM, first compound 0.01 µM
  viability, T/C: 59%
[11]
  viability, T/C: 55.9%
[12]
  viability, T/C: 31.8%

## CC1(C)CCC(CN2CCN(c3ccc(C(=O)NS(=O)(=O)c4ccc(NCC5CCOCC5)c([N+](=O)[O-])c4)c(Oc4cnc5[nH]ccc5c4)c3)CC2)=C(c2ccc(Cl)cc2)C1 + CC(Nc1ccc2c(c1)OCCn1cc(N3C(=O)OCC3C(F)F)nc1-2)C(N)=O
Second compound 0.00316 µM
  IC50: 6.16 µM
Second compound 0.01 µM
  IC50: 6.33 µM
Second compound 0.0316 µM
  IC50: 5.56 µM
Second compound 0.1 µM
  IC50: 5.22 µM
Second compound 0.316 µM
  IC50: 4.86 µM
Second compound 1 µM
  IC50: 4.21 µM
[1]
  viability, T/C: 91.7%
[2]
  viability, T/C: 102%
Second compound 0.00316 µM, first compound 0.316 µM
  viability, T/C: 105%
Second compound 0.00316 µM, first compound 1 µM
  viability, T/C: 106%
Second compound 0.00316 µM, first compound 3.16 µM
  viability, T/C: 94.3%
Second compound 0.00316 µM, first compound 10 µM
  viability, T/C: 17.5%
[3]
  viability, T/C: 104%
[4]
  viability, T/C: 98.5%
Second compound 0.01 µM, first compound 0.316 µM
  viability, T/C: 97.5%
Second compound 0.01 µM, first compound 1 µM
  viability, T/C: 107%
Second compound 0.01 µM, first compound 3.16 µM
  viability, T/C: 96.2%
Second compound 0.01 µM, first compound 10 µM
  viability, T/C: 19.3%
[5]
  viability, T/C: 112%
[6]
  viability, T/C: 104%
Second compound 0.0316 µM, first compound 0.316 µM
  viability, T/C: 95.8%
Second compound 0.0316 µM, first compound 1 µM
  viability, T/C: 91.4%
Second compound 0.0316 µM, first compound 3.16 µM
  viability, T/C: 87.4%
Second compound 0.0316 µM, first compound 10 µM
  viability, T/C: 14.5%
[7]
  viability, T/C: 94.2%
[8]
  viability, T/C: 88.2%
Second compound 0.1 µM, first compound 0.316 µM
  viability, T/C: 91.5%
Second compound 0.1 µM, first compound 1 µM
  viability, T/C: 97.9%
Second compound 0.1 µM, first compound 3.16 µM
  viability, T/C: 78.2%
Second compound 0.1 µM, first compound 10 µM
  viability, T/C: 13.7%
[9]
  viability, T/C: 81.7%
[10]
  viability, T/C: 89%
Second compound 0.316 µM, first compound 0.316 µM
  viability, T/C: 80.2%
Second compound 0.316 µM, first compound 1 µM
  viability, T/C: 75.4%
Second compound 0.316 µM, first compound 3.16 µM
  viability, T/C: 73%
Second compound 0.316 µM, first compound 10 µM
  viability, T/C: 13.6%
[11]
  viability, T/C: 78.5%
[12]
  viability, T/C: 77.1%
Second compound 1 µM, first compound 0.316 µM
  viability, T/C: 73.9%
Second compound 1 µM, first compound 1 µM
  viability, T/C: 69.7%
Second compound 1 µM, first compound 3.16 µM
  viability, T/C: 63.3%
Second compound 1 µM, first compound 10 µM
  viability, T/C: 14.1%
